# Experiments:
# [1] = tested on: PC-3; assay: Concentration required to inhibit growth of human prostate PC-3 carcinoma cell line; assay type: functional, cell-based
# [2] = tested on: HeLa; assay: Concentration required to inhibit growth of human cervical HeLa carcinoma cell line; assay type: functional, cell-based
# [3] = biological target: T1, DNA topoisomerase 1 (Homo sapiens, UniProt P11387); assay: Effective concentration against DNA topoisomerase I
# T1 sequence (P11387 whole entry): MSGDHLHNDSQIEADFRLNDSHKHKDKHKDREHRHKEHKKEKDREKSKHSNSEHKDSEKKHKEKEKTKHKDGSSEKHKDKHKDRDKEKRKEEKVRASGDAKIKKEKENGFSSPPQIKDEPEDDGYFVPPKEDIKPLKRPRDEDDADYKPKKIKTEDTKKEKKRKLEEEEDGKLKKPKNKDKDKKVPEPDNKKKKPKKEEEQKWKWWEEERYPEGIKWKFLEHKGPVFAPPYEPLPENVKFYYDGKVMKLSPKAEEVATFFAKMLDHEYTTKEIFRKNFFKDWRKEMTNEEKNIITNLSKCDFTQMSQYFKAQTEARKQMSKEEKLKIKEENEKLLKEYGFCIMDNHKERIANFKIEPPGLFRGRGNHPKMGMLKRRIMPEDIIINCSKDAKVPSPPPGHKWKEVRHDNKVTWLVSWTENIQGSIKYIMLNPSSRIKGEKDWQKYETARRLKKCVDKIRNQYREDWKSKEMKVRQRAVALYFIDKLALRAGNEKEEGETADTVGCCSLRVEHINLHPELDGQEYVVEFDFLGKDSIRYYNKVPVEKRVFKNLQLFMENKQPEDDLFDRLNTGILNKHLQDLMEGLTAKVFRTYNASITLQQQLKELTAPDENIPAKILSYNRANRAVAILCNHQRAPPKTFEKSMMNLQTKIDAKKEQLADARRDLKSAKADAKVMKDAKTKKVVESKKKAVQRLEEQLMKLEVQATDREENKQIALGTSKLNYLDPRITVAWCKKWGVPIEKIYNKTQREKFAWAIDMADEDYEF
# [4] = biological target: T2, DNA topoisomerase 1 (Homo sapiens) (UniProt P11387); assay: Stability constant for DNA topoisomerase I complex in competitive DNA assay
# T2 sequence (whole entry): T1 sequence (P11387 whole entry)
SMILES,"IC50 ([1]; Homo sapiens, PC-3) [nM]","IC50 ([2]; Homo sapiens, HeLa) [nM]",EC50 [3] [nM],K app [4] [min⁻¹],IC50 ([1]; pc-3) [nM],IC50 ([2]; hela) [nM]
CC[C@@]1(O)C(=O)OCc2c1cc1n(c2=O)Cc2c-1nc1cc3c(cc1c2-c1ccc(F)cc1)OCO3,6.3,16.2,1390,0.004,,
CC[C@@]1(O)C(=O)OCc2c1cc1n(c2=O)Cc2c-1nc1cc3c(cc1c2-c1ccc(Cl)cc1)OCO3,8.2,26,1160,0.008,,
CC[C@@]1(O)C(=O)OCc2c1cc1n(c2=O)Cc2c-1nc1ccccc1c2CC(C)C,170,1310,450,0.11,,
CC[C@@]1(O)C(=O)OCc2c1cc1n(c2=O)Cc2cc3cc4c(cc3nc2-1)OCO4,8.1,9.6,,0.05,,
CCc1c2c(nc3ccc(O)cc13)-c1cc3c(c(=O)n1C2)COC(=O)[C@]3(O)CC (stereo in doubt; form 1) [7-ETHYL-10-HYDROXYCAMPTOTHECIN],35.6,25.7,320,,,
CCCCc1c2c(nc3ccccc13)-c1cc3c(c(=O)n1C2)COC(=O)[C@]3(O)CC,48.7,37.3,200,0.05,,
CC[C@@]1(O)C(=O)OCc2c1cc1n(c2=O)Cc2c-1nc1ccccc1c2Cc1ccccc1,51.2,80.9,4560,0.24,,
CC[C@@]1(O)C(=O)OCc2c1cc1n(c2=O)Cc2c-1nc1cc3c(cc1c2-c1ccc(C(F)(F)F)cc1)OCO3,13.4,6.9,160,0.007,,
CC[C@@]1(O)C(=O)OCc2c1cc1n(c2=O)Cc2c-1nc1ccccc1c2C(C)(C)C,308,204,240,0.26,,
CC[C@@]1(O)C(=O)OCc2c1cc1n(c2=O)Cc2c-1nc1cc3c(cc1c2Cc1ccccc1)OCO3,18.9,20.5,1950,0.05,,
CC[C@@]1(O)C(=O)OCc2c1cc1n(c2=O)Cc2c-1nc1cc3c(cc1c2-c1ccccc1)OCO3,8.1,8.1,150,0.005,,
CCc1c2c(nc3ccc(O)cc13)-c1cc3c(c(=O)n1C2)COC(=O)[C@]3(O)CC (stereo in doubt; form 1),,,,0.06,,
CC[C@@]1(O)C(=O)OCc2c1cc1n(c2=O)Cc2cc3ccccc3nc2-1 [CAMPTOTHECIN],1410,117,,0.14,,
CCc1c2c(nc3cc4c(cc13)OCO4)-c1cc3c(c(=O)n1C2)COC(=O)[C@]3(O)CC,10,13.9,270,0.03,,
CC[C@@]1(O)C(=O)OCc2c1cc1n(c2=O)Cc2c-1nc1cc3c(cc1c2C1CCCC1)OCO3,9,6.2,190,0.02,,
CC[C@@]1(O)C(=O)OCc2c1cc1n(c2=O)Cc2c-1nc1cc3c(cc1c2-c1ccc(C)cc1)OCO3,8.3,2,1040,0.005,,
CCc1c2c(nc3ccc(O)cc13)-c1cc3c(c(=O)n1C2)COC(=O)[C@]3(O)CC (stereo in doubt; form 2) [7-ETHYL-10-HYDROXYCAMPTOTHECIN],,,70,,35.3,38.8
CC[C@@]1(O)C(=O)OCc2c1cc1n(c2=O)Cc2c-1nc1cc3c(cc1c2C1CCCCC1)OCO3,11.5,9,1000,0.03,,
CCc1c2c(nc3ccc(O)cc13)-c1cc3c(c(=O)n1C2)COC(=O)[C@]3(O)CC (stereo in doubt; form 2),,,,0.12,,

# Reference: ChEMBL document CHEMBL1137998 (Bioorg Med Chem Lett, 2004)
